Measurements taken from article PMC3308197 (Journal of Medicinal Chemistry, 2012).

Conditions: from measured plasma protein binding in vitro of 92%

SMILES: Cc1cc(-c2nnc(N)nc2-c2ccccc2)cc(C(F)(F)F)n1 [Compound 4k, 6-[2-Methyl-6-(trifluoromethyl)pyridin-4-yl]-5-phenyl-1,2,4-triazin-3-amine]
- unbound plasma fraction: 8%
